Measurements taken from patent publication US20040127492A1 (Pharmacia Corporation, priority 2002, published 2004).
Counter-ions that a name gives are not always drawn.

The compounds below were run against MAPKAPK2 (MK-2) (Homo sapiens, UniProt P49137) (assay: Determination of MK-2 IC50 (HSP-peptide phosphorylation, anion exchange resin capture assay)). Details: Table 1, phenoxypyrazole MK-2 inhibitors; read-out: MK-2 Avg, IC50.
Format: biochemical
Procedure: Determination of MK-2 IC50:
Recombinant MAPKAPK2 was phosphorylated at a concentration of 42-78 μM by incubation with 0.23 μM of active p38α in 50 mM HEPES, 0.1 mM EDTA, 10 mM magnesium acetate, and 0.25 mM ATP, pH 7.5 for one hour at 30° C.
The phosphorylation of HSP-peptide ([…]) by MAPKAPK2 was measured using an anion exchange resin capture assay method. The reaction was carried out in 50 mM β-glycerolphosphate, 0.04% BSA, 10 mM magnesium acetate, 2% DMSO and 0.8 mM dithiotheritol, pH 7.5 in the presence of the HSP-peptide with 0.2 μCi [γ^33P]ATP and 0.03 mM ATP. The reaction was initiated by the addition of 15 nM MAPKAPK2 and was allowed to incubate at 30° C. for 30 min. The reaction was terminated and [γ^33P]ATP was removed from solution by the addition of 150 μl of AG 1×8 ion exchange resin in 900 mM sodium formate pH 3.0. A 50 μl aliquot of head volume was removed from the quenched reaction mixture and added to a 96-well plate, 150 μl of Microscint-40 (Packard) was added and the amount of phosphorylated-peptide was determined. Allow the Microscint to sit in the plates for 60 minutes prior to counting.
Compounds are evaluated as potential inhibitors of the MK-2 kinase by measuring their effects on MK-2 phosphorylation of the peptide substrate. Compounds may be screened initially at two concentrations prior to determination of IC50 values. Screening results are expressed as percent inhibition at the concentrations of compound tested. For IC50 value determinations, Compounds are tested at six concentrations in ten-fold serial dilutions with each concentration tested in triplicate. Results are expressed as IC50 values in micromolar. The assay is performed at a final concentration of 2% DMSO.

Chain of MAPKAPK2 (MK-2) (P49137 whole entry, species assumed): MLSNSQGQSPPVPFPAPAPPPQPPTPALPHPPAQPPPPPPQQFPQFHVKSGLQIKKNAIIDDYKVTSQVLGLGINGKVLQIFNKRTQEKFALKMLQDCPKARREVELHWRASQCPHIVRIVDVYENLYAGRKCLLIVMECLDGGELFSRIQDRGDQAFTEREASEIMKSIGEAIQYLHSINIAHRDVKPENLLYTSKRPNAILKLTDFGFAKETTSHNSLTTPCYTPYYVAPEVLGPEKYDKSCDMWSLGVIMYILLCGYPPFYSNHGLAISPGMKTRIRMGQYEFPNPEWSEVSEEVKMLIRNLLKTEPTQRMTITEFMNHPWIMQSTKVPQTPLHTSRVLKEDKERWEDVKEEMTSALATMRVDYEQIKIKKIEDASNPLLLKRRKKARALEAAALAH

SMILES | IC50 [µM]
NCCCn1nc2c(c1C(=O)O)CCc1cc(O)c(Cc3ccccc3)cc1-2 [Example 29] | 29.6
COC(=O)c1[nH]nc2c1C(C)Cc1cc(OC)ccc1-2 (stereo not drawn) [Example 100] | > 200
CCC(C)Nc1cc2c(cc1OC)CCc1c-2nn(CCCN)c1C(=O)O (stereo not drawn) [Example 74] | 196
CC(C)Cc1cc2c(cc1O)CCc1c-2nn(CCCN)c1C(=O)O [Example 25] | 20.8
COc1cc2c(cc1Cc1ccccc1)-c1nn(CCCNC(=O)OC(C)(C)C)c(C(=O)O)c1CC2 [Example 63] | 154
O=C(O)c1[nH]nc2c1CCc1cc(O)c(Br)cc1-2 [Example 66] | 163
Nc1cccc(-c2cc3c(cc2O)CCc2c-3nn3c2C(=O)NCCC3)c1 [Example 51] | 105
CCC(C)Nc1cc2c(cc1O)CCc1c-2nn(CCCN)c1C(=O)O (stereo not drawn) [Example 35] | 45.9
NCCCn1nc2c(c1C(=O)O)CCc1c-2cc(-c2cccc([N+](=O)[O-])c2)c(O)c1Cl [Example 43] | 74.3

Same assay, conditions: Table 2, pyrazolylpyrazole MK-2 inhibitors; read-out: MK-2 Avg. IC50

SMILES | IC50 [µM]
NC(=O)CCn1nc(C(N)=O)c2c1-c1cn[nH]c1CC2 [Example 56] | ≥ 200
CSc1n[nH]c2c1-c1n[nH]c(C(=O)O)c1CC2 [Example 64] | ≥ 200
NCCCn1nc(C(N)=O)c2c1-c1cn[nH]c1CC2 [Example 28] | 104
NC(=O)c1[nH]nc2c1CCc1[nH]nc(SCc3ccccc3)c1-2 [Example 25] | 80.7

Same assay, conditions: Table 4, pyrimidylpyrazole MK-2 inhibitors; read-out: MK-2 Avg. IC50

SMILES | IC50 [µM]
O=C1NCCCn2nc3c(c21)CCc1cnc(-c2ccc4c(c2)OCO4)nc1-3 [Example 7] | 3.14
COc1ccc(-c2ncc3c(n2)-c2nn4c(c2CC3)C(=O)NCCC4)cc1 [Example 8] | 4.52

Same assay, conditions: read-out: MK-2 Avg. IC50

SMILES | IC50 [µM]
O=C1NCCn2nc3c(c21)CCc1cnc(N2CCNCC2)cc1-3 [Example 225] | 64.9
O=C1c2c3c(nn2CCN1CCCc1ccccc1)-c1ccncc1CC3 [Example 251] | 102
NC(=O)CCCn1nc2c(c1C(=O)O)CCc1cnccc1-2 [Example 211] | 50.1
CN(C)CC(O)Cn1nc2c(c1C(=O)N(C)C)CCc1cnccc1-2 (stereo not drawn) [Example 228] | 69.3
COc1ccc(-c2cc3c(cn2)CCc2c-3nn3c2C(=O)NCC3)cc1 [Example 62] | 0.587
O=C(O)c1c2c(nn1CC(O)CN1CCOCC1)-c1ccncc1CC2 (stereo not drawn) [Example 260] | 128
O=C(O)c1c2c(nn1CC(O)CNCc1cccs1)-c1ccncc1CC2 (stereo not drawn) [Example 206] | 36.8
CCCn1nc2c(c1C(N)=O)CCc1cnc(-c3cnc4ccccc4c3)cc1-2 [Example 252] | 103
Cn1cnc(S(=O)(=O)NCCCn2nc3c(c2C(=O)O)CCc2cnccc2-3)c1 [Example 274] | 164
CC(C)(C)OC(=O)NC1CCN(CCCn2nc3c(c2C(=O)O)CCc2cnccc2-3)CC1 [Example 269] | 149
CCOC(=O)c1c2c(nn1CCN)-c1cc(Cl)ncc1CC2 [Example 204] | 36
CN(c1ccccc1)c1cc2c(cn1)CCc1c-2nn2c1C(=O)NCC2 [Example 250] | 101
O=C(O)c1c2c(nn1CC(O)CNCCc1cccs1)-c1ccncc1CC2 (stereo not drawn) [Example 273] | 163
N#Cc1ccc(S(=O)(=O)NCCCn2nc3c(c2C(=O)O)CCc2cnccc2-3)cc1 [Example 262] | 130
CC1CCCN(c2cc3c(cn2)CCc2c-3nn3c2C(=O)NCC3)C1 (stereo not drawn) [Example 236] | 84.4
O=C1NCCn2nc3c(c21)CCc1cnc(Cc2ccc(Cl)cc2)cc1-3 [Example 243] | 94.2
O=C(O)c1c2c(nn1CCCNCc1cnc[nH]1)-c1ccncc1CC2 [Example 160] | 10.1
O=C(O)c1c2c(nn1CCCNC1CCCC1)-c1ccncc1CC2 [Example 164] | 10.4
Cc1nccc2c1CCc1c-2nn2c1C(=O)NCCC2 [Example 186] | 20
O=C1NCCCn2nc3c(c21)CCc1cnc(-c2ccc(OCc4ccccc4)cc2)cc1-3 [Example 242] | 93.4
O=C(Cc1cccs1)NCCCn1nc2c(c1C(=O)O)CCc1cnccc1-2 [Example 226] | 66.1
NC(=O)C1CCN(CC(O)Cn2nc3c(c2C(=O)O)CCc2cnccc2-3)CC1 (stereo not drawn) [Example 240] | 87.6

SMILES | IC50 [µM]
COc1cccc(S(=O)(=O)NCCCn2nc3c(c2C(=O)O)CCc2cnccc2-3)c1 [Example 267] | 141
CN(C)CCNc1cc2c(cn1)CCc1c-2nn2c1C(=O)NCC2 [Example 220] | 60.7
CS(=O)(=O)NCCCn1nc2c(c1C(=O)O)CCc1cnccc1-2 [Example 196] | 28.2
O=C1NCCn2nc3c(c21)CCc1cnc(N2CCc4ccccc4C2)cc1-3 [Example 175] | 15
N#CC1CCn2nc3c(c2C(=O)N1)CCc1cnccc1-3 (stereo not drawn) [Example 199] | 33.3
C=CCn1nc2c(c1C(N)=O)CCc1cnc(-c3cnc4ccccc4c3)cc1-2 [Example 258] | 119
NCCCn1nc2c(c1CO)CCc1cnccc1-2 [Example 277] | 186
O=C1NC(C(O)CO)Cn2nc3c(c21)CCc1cnccc1-3 (stereo not drawn) [Example 167] | 11.8
O=C1NCCn2nc3c(c21)CCc1cnc(-c2ccc(OCc4ccccc4)cc2)cc1-3 [Example 205] | 36.4
CCOC(=O)c1c2c(nn1CCN)-c1ccncc1CC2 [Example 169] | 12.3
O=C(O)c1c2c(nn1CCCNc1ccncc1)-c1ccncc1CC2 [Example 249] | 101
O=C(CCc1ccco1)NCCCn1nc2c(c1C(=O)O)CCc1cnccc1-2 [Example 256] | 116
O=C(O)c1c2c(nn1CC(O)CNC1Cc3ccccc3C1)-c1ccncc1CC2 (stereo not drawn) [Example 172] | 14
CCCn1nc2c(c1C(=O)O)CCc1cnccc1-2 [Example 187] | 20.1
c1coc(-c2[nH]nc3c2CCc2cnccc2-3)c1 [Example 214] | 53.7
COc1cccc(-c2cc3c(cn2)CCc2c-3nn3c2C(=O)NCC3)c1 [Example 45] | 0.322
CCCCCCc1cc2c(cn1)CCc1c-2nn2c1C(=O)NCC2 [Example 264] | 133
O=C1NCCCn2nc3c(c21)CCc1cnc(-c2cccc([N+](=O)[O-])c2)cc1-3 [Example 50] | 0.453
C=CCNC(=O)NCCCn1nc2c(c1C(=O)O)CCc1cnccc1-2 [Example 217] | 55.3
CC(=O)Nc1ccc(S(=O)(=O)NCCCn2nc3c(c2C(=O)O)CCc2cnccc2-3)cc1 [Example 276] | 176
COC(=O)C1Cn2nc3c(c2C(=O)N1)CCc1cnccc1-3 (stereo not drawn) [Example 180] | 16.5
O=C1NCCn2nc3c(c21)CCc1cnc(CCC2CCCCC2)cc1-3 [Example 259] | 121

SMILES | IC50 [µM]
CC(C)NCCn1nc2c(c1C(=O)O)CCc1cnccc1-2 [Example 182] | 17.7
CC(C)S(=O)(=O)NCCCn1nc2c(c1C(=O)O)CCc1cnccc1-2 [Example 200] | 33.3
O=C(O)c1c2c(nn1CC(O)CN1CCNCC1)-c1ccncc1CC2 (stereo not drawn) [Example 283] | 198
CSc1nccc2c1CCc1c-2nn(CCCN)c1C(=O)O [Example 234] | 83.4
O=C(O)c1c2c(nn1CCO)-c1ccncc1CC2 [Example 173] | 14.3
O=C1NC(CNCc2ccc(Cl)cc2)Cn2nc3c(c21)CCc1cnccc1-3 (stereo not drawn) [Example 193] | 27.3
CN(C)CCCn1nc2c(c1C(=O)O)CCc1cnccc1-2 [Example 177] | 15.5
NCCCn1nc2c(c1CCl)CCc1cnccc1-2 [Example 201] | 33.5
CC(C)NCCCn1nc2c(c1C(=O)O)CCc1cnccc1-2 [Example 190] | 21.9
NCCCn1nc2c(c1C(=O)O)CCc1c-2ccnc1Cl [Example 179] | 16.5
CCCCNC(=O)NCCCn1nc2c(c1C(=O)O)CCc1cnccc1-2 [Example 213] | 53.5
CSc1[nH]nc2c1CCc1cnccc1-2 [Example 237] | 85.2
NC1CCN(CC(O)Cn2nc3c(c2C(=O)O)CCc2cnccc2-3)CC1 (stereo not drawn) [Example 266] | 136
O=C(O)c1[nH]nc2c1CCc1cnccc1-2 [Example 224] | 63.4
CCC(CC)CNCCCCn1nc2c(c1C(=O)O)CCc1cnccc1-2 [Example 197] | 29.4
C#Cc1cnc2c(c1)-c1nn(CCN)c(C(=O)OCC)c1CC2 [Example 222] | 62.5
NCCCC1CNC(=O)c2c3c(nn21)-c1ccncc1CC3 (stereo not drawn) [Example 166] | 11
CCCn1nc2c(c1C(=O)O)CCc1cnc(-c3cnc4ccccc4c3)cc1-2 [Example 20] | 0.0914
CCC(CC)CNCCn1nc2c(c1C(=O)O)CCc1cnccc1-2 [Example 221] | 62.1
c1cc2c(cn1)CCc1c[nH]nc1-2 [Example 238] | 86.1
NC(CCn1nc2c(c1C(=O)O)CCc1cnccc1-2)C(=O)O (stereo not drawn) [Example 191] | 25
O=C(O)c1c2c(nn1CC(O)CN1CCCC1)-c1ccncc1CC2 (stereo not drawn) [Example 272, hydrochloride] | 162
